Series [1] deals with NCI-H358 (expressing KRas G12C mutant) tumors. The series can be described thus: In vivo efficacy in NCI-H358 (G12C) model. Details: species or system Athymic Nude-Foxn1 nu mice. To be noted: daily dose 50 mg/kg. As for the experimental part:
Biological Example 8: In Vivo Efficacy of Compound 6 in NCI-H358 (G12C) Model
Cell lines: Human tumor-derived non-small cell lung cancer cell lines NCI-H358 (expressing KRas G12C mutant was grown in RPMI-1640 Medium, ATCC 30-2001, supplemented with 10% fetal bovine serum (FBS) and Penicillin/Streptomycin 100U/ml (Lonza BioWhittaker, Morrisville, NC). Cells were trypsinized, washed in sterile PBS, counted, and resuspended in a 1:1 mix PBS/HC Matrigel (Corning, Glendale, AZ) at a concentration of 25×10^6/ml. Cells were kept on ice until injection.
The right flank of Athymic Nude-Foxn1 nu mice (The Jackson Laboratory, Harbor, ME) was injected subcutaneously with 5×10^6 cells in 200 μl of sterile PBS/Matrigel solution. Tumor mass was first measured 4 days after injection and mice were randomized on the basis of these measurements. Treatment was begun when tumors reached 150-200 mm^3, ^˜5-8 days after injection. Compound 6 was formulated in 20% captisol (50 mM citrate buffer, PH 5.0), and mice received either daily dose of vehicle or 50 mg/kg body weight of the formulated compound 6. Tumors were measured using digital calipers and volume (v) was calculated using the formula V=(W(2)×L)/2 where V is tumor volume, W is tumor width, and L is tumor length. Mice were housed in accordance with IACUC guidelines. The calculated Tumor Growth Inhibition (TGI) was 80%.

Series [2] concerns NCI-H1975 (expressing wild type KRas). The series can be described thus: Proliferation Assay (Cell Viability Assay). To be noted: Homo sapiens; NCI-H1975, NSCLC, KRas WT. In kind it is cell-based. As for the experimental part: (§1) Cell lines: these Human tumor-derived cell lines were purchased from American Type Culture Collection. Human tumor-derived pancreatic cancer cell line MiaPaca-2 (expressing KRAS G12C mutant) and Panc-1 (expressing KRas G12D mutant), and Human non-small cell lung cancer (NSCLC) cell line A549 (expressing KRas G12S mutant), and Human melanoma cell line A375 (wild type Kras) were grown in complete DMEM-High Glucose medium. Human tumor-derived pancreatic cancer cell lines SU86.86 (expressing KRas G12D mutant), BxPC3 (expressing wild type K-Ras), and Human non-small cell lung cancer (NSCLC) cell lines NCI-H441 (expressing KRas G12S mutant), NCI-H1975 (expressing wild type KRas), NCI-H358 (expressing KRas G12C mutant), NCI-H1299 (expressing NRas Q61H mutant), and Human colon cancer cell line SW-620 (expressing KRas G12V mutant), Human triple negative breast cancer cell line HCC-1806 (expressing wild type KRas), and Human tumor-derived multiple myeloma cell line MM.1R (expressing wild type KRAS), were grown in RPMI 1640 medium. Human tumor-derived breast cancer cell line BT-549 (expressing wild type KRAS) was grown in RPMI 1640 medium in the presence of 11.8U insulin. Human tumor-derived pancreatic cancer cell line HPAF-II (expressing KRas G12D mutant), Human triple negative breast cancer cell line BT-20 (expressing wild type KRas), and Human colon cancer cell line LS123 (expressing KRas G12S mutant), were grown in EMEM medium. Human tumor-derived pancreatic cancer cell line CF-PAC1 (expressing KRas G12V mutant) was frown in IMDM medium, and Human colon cancer cell line HT29 (expressing wild type KRas) was grown in McCoy's 5A medium. The colon cancer cell line GP2d (expressing KRas G12D mutant) was purchased from MilliporeSigma and grown in DMEM-High Glucose medium. All cell lines were supplemented with penicillin (100 U/mL), streptomycin (100 μg/mL), and 10% heat-inactivated FBS at 37° C. in a humidified incubator with 5% CO2.
(§2) Method: Cells were plated at 2000 to 5000 cells/well density in 96-wells plate and cultured overnight. Small molecules that were tested were added to the cells in the final concentration of 10 μM in the presence of 0.3% DMSO and 10% FBS, and incubated for 2-4 days at 37° C. in a humidified incubator with 5% CO2. For IC50 value determination, serial dilutions of compounds were added to cells under the same conditions.
(§3) Assay: At the end of the incubation period, cell viability was determined using the CellTiter 96® Aqueous One Solution Cell Proliferation Assay according to manufacturer specifications (Promega, Madison, WI). The percentage of small molecules inhibition of cellular proliferation was calculated from raw data.

The subject of series [3] is SU86.86 (expressing KRas G12D mutant). The series can be described thus: Proliferation Assay (Cell Viability Assay). In kind it is cell-based. To be noted: Homo sapiens, SU.86.86, SU86.86, pancreatic. As for the experimental part: as §1, §2, §3
Series [4] relates to HCC-1806 (expressing wild type KRas). The series can be described thus: Proliferation Assay (Cell Viability Assay). In kind it is cell-based. To be noted: Homo sapiens, HCC1806; HCC-1806, Breast (TNBC), KRas WT. As for the experimental part:
as §1, §2, §3

In series [5] the test system is NCI-H441 (expressing KRas G12S mutant). The series can be described thus: Proliferation Assay (Cell Viability Assay). In kind it is cell-based. To be noted: Homo sapiens, NCI-H441, NSCLC. As for the experimental part:
as §1, §2, §3

Series [6] concerns CF-PAC1 (expressing KRas G12V mutant). As to the kind of experiment: Proliferation Assay (Cell Viability Assay). To be noted: Homo sapiens, CFPAC-1, CF-PAC1, pancreatic. In kind it is cell-based. As for the experimental part: as §1, §2, §3
The subject of series [7] is NCI-H1299 (expressing NRas Q61H mutant). As to the kind of experiment: Proliferation Assay (Cell Viability Assay). In kind it is cell-based. To be noted: Homo sapiens; NCI-H1299, NSCLC, Q61H (N-Ras). As for the experimental part:
as §1, §2, §3

Series [8] deals with BT-20 (expressing wild type KRas). As to the kind of experiment: Proliferation Assay (Cell Viability Assay). To be noted: Homo sapiens; BT-20, Breast (TNBC), KRas WT. In kind it is cell-based. As to the method: as §1, §2, §3
Series [9] relates to HT29 (expressing wild type KRas). As to the kind of experiment: Proliferation Assay (Cell Viability Assay). In kind it is cell-based. To be noted: Homo sapiens, HT-29; HT29, colon, KRas WT. As to the method: as §1, §2, §3
Series [10] relates to LS123 (expressing KRas G12S mutant). The series can be described thus: Proliferation Assay (Cell Viability Assay). To be noted: Homo sapiens, LS-123, colon. In kind it is cell-based. As to the method:
as §1, §2, §3

The subject of series [11] is BxPC3 (expressing wild type K-Ras). As to the kind of experiment: Proliferation Assay (Cell Viability Assay). In kind it is cell-based. To be noted: Homo sapiens, BXPC-3; BxPC3, pancreatic, KRas WT. As for the experimental part: as §1, §2, §3
The subject of series [12] is HPAF-II (expressing KRas G12D mutant). The series can be described thus: Proliferation Assay (Cell Viability Assay). In kind it is cell-based. To be noted: Homo sapiens, pancreatic. As for the experimental part:
as §1, §2, §3

The IC50 is the midpoint of a concentration-inhibition curve. Low values mean greater potency, high ones weaker potency.

Turning to `COc1cc(Nc2nc(-c3nccn3C)nn3cc(-c4ccn(C(C)C)n4)c(C)c23)ncn1` [Compound 6, 6-(1-Isopropyl-1H-pyrazol-3-yl)-N-(6-methoxypyrimidin-4-yl)-5-methyl-2-(1-methyl-1H-imidazol-2-yl)pyrrolo[2,1-f][1,2,4]triazin-4-amine], the “Tumor Growth Inhibition (TGI)” value in series [1] (NCI-H358 subcutaneous tumors in nude mice, 20% captisol formulation) was found to be 80%. Besides, the Weight loss result in series [1] (NCI-H358 tumor-bearing nude mice) is recorded as “No weight loss was detected”. Moreover, the IC50 in [2] was 510 to 1000 nM; in series [3], 150 to 500 nM; in series [4], 510 to 1000 nM; in series [5] it was 510 to 1000 nM; in series [6], below 150 nM; in series [7], below 150 nM. Moreover, the IC50 in series [8], in series [9], in series [10], in series [11] and in series [12] was below 150 nM each time.
